Laboratory results as given in US10723770B2, “Crystal structure of the large ribosomal subunit from S. aureus” (Yeda Research and Development Co. Ltd., priority 2015, dated 2020).
≈ marks a conversion by molar mass, not a printed value.

Experiments:
SA ribosomes = assay: S. aureus cell free in vitro transcription-translation assay (luciferase reporter); assay type: biochemical, Staphylococcus aureus; conditions: for IC50, inhibition of protein synthesis: luciferase luminescence, S. aureus system
Procedure: The SA ribosomes activity was tested and its level was determined in a bacterial coupled transcription/translation assay system which measures the expression of the luciferase gene, according to Murray, R. W. et al. [Antimicrobial agents and chemotherapy, 2001, 45(6), p. 1900-1904]. Briefly, the luciferase gene was inserted into plasmid with T7 RNA polymerase promoter. The 30 μl reaction's volume contained 160 mM Hepes-KOH buffer (pH 7.5), 6.5% PEG 8K, 0.074 mg/ml tyrosine, 1.3 mM ATP, 0.86 mM CTP, GTP and UTP, 208 mM potassium glutamate, 83 mM creatine phosphate, 28 mM NH4OAc, 0.663 mM cAMP, 1.8 mM DTT, 0.036 mg/ml folinic acid, 0.174 mg/ml E. coli tRNA mix, 1 mM amino acid, 0.25 mg/ml creatine kinase, 0.027 mg/ml T7 RNA polymerase, ribosome free E. coli cell free extract, 300 nM of SA ribosomes and 0.003 μg/μl luciferase plasmid.
The reaction mixture was incubated at 37° C. for 1 hour, and erythromycin was added at a final concentration of 8 μM in order to terminate the reaction. 50 μl of Luciferin Assay Reagent (LAR, Promega) was added to the mixture and luminescence was measured in order to quantify the reaction's products.
FIGS. 20A-B present the results of in vitro transcription-translation cell-free inhibition assays of bacterial protein synthesis, wherein the inhibitory effect on protein expression in S. aureus system of BC-3205 is presented in FIG. 20A and of lefamulin is presented in FIG. 20B. The activity of the reporter protein (luciferase) in the presence of various concentrations of BC-3205 and lefamulin is shown as arbitrary unit of luminescence [a.u.].

Staphylococcus aureus = conditions: cited from earlier work

SMILES | IC50, inhibition of protein synthesis (SA ribosomes) | MIC against SA (Staphylococcus aureus) | potency against SA relative to linezolid (Staphylococcus aureus; more potent than linezolid) | IC50 against S. aureus ribosome compared to E. coli ones (SA ribosomes; in words only, data not shown)
C=C[C@]1(C)C[C@@H](OC(=O)CS[C@H]2CCCN(C(=O)[C@H](N)C(C)C)C2)[C@]2(C)[C@H](C)CC[C@]3(CCC(=O)[C@H]32)[C@@H](C)[C@@H]1O [BC-3205] | 0.42 µg/mL | 0.06 µg/mL (≈ 0.104 µM) | 16-32 fold | 
C=C[C@]1(C)C[C@@H](OC(=O)CS[C@@H]2CC[C@@H](N)C[C@H]2O)[C@]2(C)[C@H](C)CC[C@]3(CCC(=O)[C@H]32)[C@@H](C)[C@@H]1O [lefamulin] | 0.09 µg/mL |  |  | 
CCC[C@@H]1C[C@@H](C(=O)N[C@@H]([C@H]2O[C@H](SC)[C@H](O)[C@@H](O)[C@H]2O)[C@@H](C)O)N(C)C1 [lincomycin] |  |  |  | super low IC50
